One test has as its target T1, hTRPV3 single channel (Homo sapiens, UniProt Q8NET8).
T1 construct: expressed in transfected cells; host or cells: HEK293T
T1 sequence (Q8NET8 1-790): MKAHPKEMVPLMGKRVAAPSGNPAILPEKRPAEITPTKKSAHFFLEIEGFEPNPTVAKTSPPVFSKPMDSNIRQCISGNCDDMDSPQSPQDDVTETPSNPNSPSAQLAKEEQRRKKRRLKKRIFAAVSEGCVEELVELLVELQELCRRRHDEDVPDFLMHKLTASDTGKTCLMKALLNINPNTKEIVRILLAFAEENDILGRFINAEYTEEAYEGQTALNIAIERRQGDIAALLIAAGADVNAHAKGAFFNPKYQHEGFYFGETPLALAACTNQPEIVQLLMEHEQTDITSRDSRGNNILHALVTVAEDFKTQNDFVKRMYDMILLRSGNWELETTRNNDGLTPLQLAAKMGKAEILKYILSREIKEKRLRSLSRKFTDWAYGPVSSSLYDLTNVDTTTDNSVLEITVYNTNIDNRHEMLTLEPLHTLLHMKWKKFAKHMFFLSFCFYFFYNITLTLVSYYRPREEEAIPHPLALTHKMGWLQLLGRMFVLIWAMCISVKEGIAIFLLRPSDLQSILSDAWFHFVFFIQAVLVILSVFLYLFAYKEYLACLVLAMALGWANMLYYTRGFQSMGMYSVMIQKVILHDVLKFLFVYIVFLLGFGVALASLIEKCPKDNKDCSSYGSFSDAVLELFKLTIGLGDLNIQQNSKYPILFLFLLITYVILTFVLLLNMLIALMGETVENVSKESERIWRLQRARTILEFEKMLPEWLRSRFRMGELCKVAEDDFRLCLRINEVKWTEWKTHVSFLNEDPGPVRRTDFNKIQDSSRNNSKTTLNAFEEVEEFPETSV
The experiment in a line: Inside-out single-channel recording of hTRPV3. The format is cell-based. As to conditions: −60 mV.

For a further test, the system named is TRPV3. The conditions noted are these: read-out: IC50, TRPV3 inhibition; cited from earlier work.
Test [1] deals with T2, human TRPV3 (hTRPV3) channel (Homo sapiens, UniProt Q8NET8).
T2 construct: expressed in transfected cells; host or cells: HEK293T
T2 sequence (Q8NET8 1-790): T1 sequence (Q8NET8 1-790)
The experiment in a line: Whole-cell patch-clamp of hTRPV3 currents in transfected HEK293T cells. The format is cell-based.

For the next test, the target named is T3, hTRPV3 T636A mutant (Homo sapiens, UniProt Q8NET8, T636A).
T3 construct: expressed in transfected cells; host or cells: HEK293T
T3 sequence (Q8NET8 1-790 T636A): T1 sequence (Q8NET8 1-790) with T636A
Description: Whole-cell patch-clamp of hTRPV3 T636A mutant in HEK293T cells. The format is cell-based. For orientation: Patch clamp records ionic current or voltage across a cell membrane.

For the next test, the target named is T4, hTRPV3 I637A mutant (Homo sapiens, UniProt Q8NET8, I637A).
T4 construct: expressed in transfected cells; host or cells: HEK293T
T4 sequence (Q8NET8 1-790 I637A): T1 sequence (Q8NET8 1-790) with I637A
The experiment in a line: Whole-cell patch-clamp of hTRPV3 I637A mutant in HEK293T cells. The format is cell-based. As to conditions: I637A hTRPV3, 50 μM 2-APB, +80 mV, Hill fit; read-out: IC50, inhibition of I637A mutant outward currents.

The mark [2] stands for this setting: agonist carvacrol at 300 μM alone.

Positions count from the first letter of the chain named. Where two headings read alike, the source gives them in different places.

Take `NCCOB(c1ccccc1)c1ccccc1` [2-APB, 2-aminoethoxydiphenylborate]: on hTRPV3 single channel (agonist 2-APB 50 μM alone), the “open frequency (Freq)” value is recorded as 75.05 ± 6.63 Hz, the single-channel conductance is listed as 161.6 ± 3.8 pS and the “single-channel open probability (POPEN)” value is given as 0.72 ± 0.06. As a reminder, the IC50 is the midpoint of a concentration-inhibition curve. With `O=C(/C=C/c1ccc(O)c(O)c1)O[C@@H]1C[C@](O)(C(=O)O)C[C@@H](OC(=O)/C=C/c2ccc(O)c(O)c2)[C@H]1O` [isochlorogenic acid A], in the test with TRPV3, the IC50 was 2.7 ± 1.3 µM.

As to `O=C(/C=C/c1ccc(O)c(O)c1)O[C@@H]1[C@@H](OC(=O)/C=C/c2ccc(O)c(O)c2)C[C@@](O)(C(=O)O)C[C@@H]1O` [isochlorogenic acid B], the half-maximal inhibitory concentration (IC50) in the test on TRPV3 is 0.9 ± 0.3 µM.

As for `C[C@@H]1O[C@@H](O[C@@H]2[C@@H](O)[C@H](OCCc3ccc(O)c(O)c3)O[C@H](CO)[C@H]2OC(=O)/C=C/c2ccc(O)c(O)c2)[C@H](O)[C@H](O)[C@H]1O` [verbascoside], in the test on TRPV3, the concentration for half-maximal inhibition (IC50) was 14.1 ± 3.3 µM. In the case of forsythiaside B, the IC50 in the test with TRPV3 was 6.7 ± 0.7 µM. Consider `O=C(/C=C/c1ccc(O)c(O)c1)OCCc1ccccc1` [CAPE, caffeic acid phenethyl ester], for which the IC50 in test [1] turned out to be 277 ± 41.9 µM; on hTRPV3 T636A mutant, 506 ± 57.3 µM. Turning to `Cc1ccc(C(C)C)cc1O` [carvacrol], on hTRPV3 single channel (setting [2]), the “open frequency (Freq)” value is 53.55 ± 7.27 Hz, the single-channel conductance was determined as 179.4 ± 12.8 pS and the “single-channel open probability (POPEN)” value was determined as 0.56 ± 0.05. Consider `COC(=O)/C=C/c1ccc(O)c(O)c1` [CAMC, caffeic acid methyl caffeate], for which the IC50 in test [1] (WT hTRPV3 in HEK293T, whole-cell, activated by 50 μM 2-APB, at +80 mV, Hill fit, mean ± SD, read-out: IC50, inhibition of hTRPV3 currents) is 410 ± 57.9 µM; at hTRPV3 T636A mutant (T636A hTRPV3, 50 μM 2-APB, +80 mV, Hill fit, read-out: IC50, inhibition of T636A mutant outward currents), 417 ± 45.1 µM; at hTRPV3 I637A mutant it was 522 ± 43.8 µM.

Values taken from PMC11357638 (Molecules, 2024).
